Laboratory results as given in US8927576B2, “HCV inhibitor and therapeutic agent combinations” (PTC Therpeutics, Inc., priority 2009, dated 2015).

Tested on: HCV replicon (replicon cells)
Assay: Replicon response to antiviral agent(s): luciferase replicon inhibition, combination of HCV inhibitor and therapeutic agent
Type: cell-based
Conditions: in combination with Cpd 661; range over the combination ratios (Cpd 661:agent) tested; replicon cells treated three days; luciferase (Bright Glo)
Procedure: Replicon cells were seeded at 5000 cells/well in 96-well plates and were treated with a HCV inhibitor and/or a HCV therapeutic agent for three days. The growth medium consisted of a final concentration of 0.5% DMSO and 10% fetal bovine serum.
The HCV therapeutic agents, an interferon-α, a NS5b HCV polymerase inhibitor Compound 1p and a NS3/NS4a HCV protease inhibitor Compound 2p in the compound treatment samples were each serially diluted to the concentration ratios indicated in Table 1. Replicon cells in the untreated control were not treated with a HCV inhibitor or therapeutic agent. To each concentration of therapeutic agent, the HCV inhibitor Compound 661 was titrated. After three days, Bright Glo agent was used to detect luciferase activity. The activity of the medium without cells was measured as the background control. Replicon inhibition was calculated using the following formula: […]

Molecule	Combination Index IC50	Combination Index IC75	Combination Index IC90
CC(C)CCn1c(=O)c(C2=Nc3ccccc3S(=O)(=O)N2)c(O)c2ccccc21 [Cpd 1p, 3-(1,1-dioxido-2H-1,2,4-benzothiadiazin-3-yl)-4-hydroxy-1-(3-methylbutyl)quinolin-2(1H)-one]	0.19-0.94	0.13-0.61	0.09-0.4
C=C[C@H]1C[C@@]1(NC(=O)[C@@H]1C[C@@H](Oc2cc(-c3ccccc3)nc3cc(OC)ccc23)CN1C(=O)[C@@H](NC(=O)OC(C)(C)C)C(C)(C)C)C(=O)NS(=O)(=O)C1CC1 [Cpd 2p, N-(tert-butoxycarbonyl)-3-methyl-L-valyl-(4R)-N-{(1S,2R)-1-[(cyclopropylsulfonyl)carbamoyl]-2-ethenylcyclopropyl}-4-[(7-methoxy-2-phenylquinolin-4-yl)oxy]-L-prolinamide]	0.26-0.91	0.27-0.66	0.29-0.48
interferon-α	0.36-0.84	0.42-0.78	0.35-0.72
